Assay results taken from article PMC3703888, “Integration of Different “-omics” Technologies Identifies Inhibition of the IGF1R-Akt-mTOR Signaling Cascade Involved in the Cytotoxic Effect of Shikonin against Leukemia Cells” (Evidence-based Complementary and Alternative Medicine : eCAM, 2013).

Tested on: U937 cells
Assay: mRNA microarray
Type: cell-based, human
Conditions: shikonin at IC50 concentration, 24 h vs DMSO
Procedure: Total RNA from U937 cells after 24 h of treatment with shikonin at IC50 concentration or DMSO solvent control was isolated using RNeasy Kit from Qiagen (Hilden, Germany) according to the manufacture's instruction. The quality of total RNA was checked by gel analysis using the total RNA Nano chip assay on an Agilent 2100 Bioanalyzer (Agilent Technologies GmbH, Berlin, Germany). Only samples with RNA index values greater than 9.3 were selected for expression profiling. Microarray experiments were performed in duplicates for treated and untreated samples. Biotin-labeled cRNA samples for hybridization on Illumina Human Sentrix-HT12 Bead Chip arrays (Illumina, Inc.) were prepared according to Illumina's recommended sample labeling procedure based on the modified Eberwine protocol. Biotin-16-UTP was purchased from Roche Applied Science (Penzberg, Germany). The cRNA was column purified with TotalPrep RNA Amplification Kit and eluted in 60 μL of water. Quality of cRNA was controlled using the RNA Nano Chip Assay on an Agilent 2100 Bioanalyzer and spectrophotometrically quantified (NanoDrop). Hybridization was also performed according the manufacturer's recommendations. Microarray scanning was done using a Beadstation array scanner, setting adjusted to a scaling factor of 1 and PMT settings at 430. Data was extracted for each bead individually, and outliers were removed when the MAD (median absolute deviation) was greater than 2.5. Data analysis was performed by using the quantile normalization algorithm without background subtraction, and differentially regulated genes were defined by calculating the standard deviation differences of a given probe in a one-by-one comparison of samples or groups. The expression data obtained was filtered with Chipster data analysis platform. These steps include filtering of genes by two times standard deviation of deregulated genes and a subsequent assessment of significance using empirical Bayes t-test (P < 0.05).

CC(C)=CC[C@@H](O)C1=CC(=O)c2c(O)ccc(O)c2C1=O [shikonin]
FC mRNA ACTB (Actin, cytoplasmic 1): −6.8 | FC mRNA ACTG1 (Actin, cytoplasmic 2): −11.9 | FC mRNA ALDOA (Fructose-bisphosphate aldolase A): −17.6 | FC mRNA ANXA1 (Annexin A1): +4.1 | FC mRNA ARPC1B (Actin-related protein 2/3 complex subunit 1B): −7.8 | FC mRNA CCL2 (C-C motif chemokine 2): +4.2 | FC mRNA CCT7 (T-complex protein 1 subunit eta): −7.8 | FC mRNA ERP29 (Endoplasmic reticulum resident protein 29): −6.0 | FC mRNA HMOX1 (Heme oxygenase 1): +4.1 | FC mRNA HSPD1 (60 kDa heat shock protein, mitochondrial): −6.6 | FC mRNA JUN (Transcription factor AP-1): +3.2 | FC mRNA LY96 (Lymphocyte antigen 96): +4.5 | FC mRNA MAFB (Transcription factor MafB): +3.5 | FC mRNA MLLT11 (Protein AF1q): +6.2 | FC mRNA NCF1 (Neutrophil cytosol factor 1): −5.9 | FC mRNA PSMC4 (26S protease regulatory subunit 6B): −7.7 | FC mRNA S100A8 (Protein S100-A8): +4.7 | FC mRNA S100A9 (Protein S100-A9): +4.2 | FC mRNA SLC39A3 (Zinc transporter ZIP3): −6.2 | FC mRNA VIM (Vimentin): +4.2
